Patent publication US20250115577A1, “BCL-2 Inhibitors” (Eil Therapeutics, Inc., priority 2021, published 2025)
Where two headings read alike, the source gives them in different places.

Experiments:
[1] = test system: MOLT-4 cells; assay: Cell viability assay (CellTiter-Glo), MOLT-4; format: cell-based; conditions: 3 days of incubation
Method in brief: (§1)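 4000 cells/well in DMEM (HEK293, adhered overnight) or RPMI (RS4-11, MOLT-4) with 10% FBS; compounds added at 0.2% DMSO final. After 3 days, viability read by CellTiter-Glo luminescence.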

[2] = target: BCL-2 (Homo sapiens (Human), UniProt P10415); assay: BCL-2 TR-FRET Assay (primary PPI inhibition); format: binding; conditions: 60 min incubation, read-out: BCL2 IC50
Method in brief: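 His-tagged BCL-2 (3 ng) with anti-His Tb donor, dye-labeled acceptor and BCL-2 peptide ligand; compound added at 200× stock, final DMSO 0.5%. 60 min incubation, then TR-FRET read at 340 nm excitation, 620/665 nm emission, 60 µs delay, 500 µs integration.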

[3] = test system: RS4-11 cells; assay: Cell viability assay (CellTiter-Glo), RS4-11; format: cell-based; conditions: 3 days of incubation
Method in brief: as §1

[4] = test system: caspase-3 and -7 activities in RS4-11 cells; assay: Caspase-3/7 activation (Caspase-Glo 3/7) in RS4-11 cells; format: cell-based; conditions: 3.5 h, read-out: Cas-3/7 EC50
Method in brief: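 RS4-11 cells exposed to graded compound concentrations for 3.5 h at 37 °C, 5% CO2. Caspase-3/7 activity then read as luminescence after 30 min at rt with a DEVD-based luminogenic substrate reagent.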

[5] = test system: HEK293 cells; assay: Cell viability assay (CellTiter-Glo), HEK293; format: cell-based; conditions: 3 days of incubation
Method in brief: as §1

[6] = target: BCL-2 [G101V] (Homo sapiens (Human), UniProt P10415, G101V); assay: BCL-2 [G101V] TR-FRET Assay (primary PPI inhibition); format: binding; conditions: 60 min incubation, read-out: BCL2[G101V] IC50
Method: Example C. BCL-2 [G101V]TR-FRET Assay
The following assay concentrations and times were used: 0.22 ng/μl of BCL-2 (SinoBiological, #10195-H08E1), 5 μL of 1:100 anti-His Tb-labeled donor, 5 μL of 1:100 Dye-labeled acceptor, 5 μL of 1:40 BCL-2 Peptide Ligand (BPS Bioscience, #50223), and 2 μL of 200× test compound, with 60 min incubation time (final concentration of DMSO 0.5%). The results of the assay were read using a plate reader with the following parameters: TR FRET, 340ex/620 and 665em; 60 usec Delay; and 500 usec integration.
Instrumentation: CLARIOstar Plus (BMG LABTECH); Biomek FX for liquid handling (Beckman Coulter).

[7] = target: BCL-xL (Homo sapiens (Human), UniProt Q07817); assay: BCL-xL TR-FRET Assay (primary PPI inhibition); format: binding; conditions: 60 min incubation, read-out: BCLxL IC50
Method in brief: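 TR-FRET competition of His-tagged BCL-xL (10.5 ng) binding to dye-labeled peptide ligand, with anti-His Tb donor; compound added from 200× stock, 0.5% DMSO final. After 60 min incubation, read at 340 nm excitation, 620/665 nm emission, 60 µs delay, 500 µs integration.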

[8] = Cell viability assay (CellTiter-Glo), HEK293; format: cell-based; conditions: human, HEK293 cells, 3 days of incubation
Method in brief: as §1

Chain of BCL-xL (Q07817 whole entry): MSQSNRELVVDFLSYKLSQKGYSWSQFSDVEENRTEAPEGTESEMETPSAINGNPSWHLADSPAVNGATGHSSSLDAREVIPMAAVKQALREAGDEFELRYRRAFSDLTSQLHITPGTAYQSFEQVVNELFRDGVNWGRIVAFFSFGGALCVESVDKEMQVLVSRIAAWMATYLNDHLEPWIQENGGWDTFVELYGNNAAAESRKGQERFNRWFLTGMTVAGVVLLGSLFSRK

Compound	CC50 ([1]; Homo sapiens, 72 h)	IC50 [2]	CC50 ([3]; Homo sapiens, RS4-11, 72 h)	EC50 ([4]; Homo sapiens)	CC50 [5]	IC50 [6]	IC50 [7]	CC50 at 3 days [8]	CC50 [1]	CC50 [3]	EC50 [4]
COc1cccc(CN(C(=O)c2cc(-c3cc(Cl)c(F)cc3C(=O)N3Cc4ccccc4C[C@H]3CN3CCOCC3)n(C)c2C)c2ccc(C#N)cc2)c1C [Compound 29, 5-[5-chloro-4-fluoro-2-[(3S)-3-(morpholinomethyl)-3,4-dihydro-1H-isoquinoline-2-carbonyl]phenyl]-N-(4-cyanophenyl)-N-[(3-methoxy-2-methyl-phenyl)methyl]-1,2-dimethyl-pyrrole-3-carboxamide]	> 10 µM	0.01 to 0.05 µM	0.1 to 0.2 µM	> 0.5 µM	> 25 µM	–	–	–	–	–	–
COc1cc(C(=O)N2Cc3ccccc3C[C@H]2CN2CCOCC2)c(-c2cc(C(=O)N(Cc3cccc(OC)c3C)c3ccc(O)cc3)c(C)n2C)cc1Cl [Compound 11, 5-[5-chloro-4-methoxy-2-[(3S)-3-(morpholinomethyl)-3,4-dihydro-1H-isoquinoline-2-carbonyl]phenyl]-N-(4-hydroxyphenyl)-N-[(3-methoxy-2-methyl-phenyl)methyl]-1,2-dimethyl-pyrrole-3-carboxamide]	≤ 5 µM	0.01 to 0.05 µM	0.1 to 0.2 µM	≤ 0.2 µM	–	0.1 to 1 µM	2 to 5 µM	> 25 µM	–	–	–
COc1cccc(CN(C(=O)c2cc(-c3ccc(OC(F)F)cc3C(=O)N3Cc4ccccc4C[C@H]3CN3CCOCC3)n(C)c2C)c2ccc(O)cc2)c1C [Compound 31, 5-[4-(difluoromethoxy)-2-[(3S)-3-(morpholinomethyl)-3,4-dihydro-1H-isoquinoline-2-carbonyl]phenyl]-N-(4-hydroxyphenyl)-N-[(3-methoxy-2-methyl-phenyl)methyl]-1,2-dimethyl-pyrrole-3-carboxamide]	≤ 5 µM	0.005 to 0.01 µM	> 0.2 µM	> 0.5 µM	–	> 1 µM	2 to 5 µM	> 25 µM	–	–	–
Cc1c(C(=O)N(Cc2ccccc2C#N)c2ccc3[nH]ncc3c2)cc(-c2cc(Cl)ccc2C(=O)N2Cc3ccccc3C[C@H]2CN2CCOCC2)n1C [Compound 68, 5-[5-chloro-2-[(3S)-3-(morpholinomethyl)-3,4-dihydro-1H-isoquinoline-2-carbonyl]phenyl]-N-[(2-cyanophenyl)methyl]-N-(1H-indazol-5-yl)-1,2-dimethyl-pyrrole-3-carboxamide]	> 10 µM	0.01 to 0.05 µM	> 0.2 µM	> 0.5 µM	–	> 1 µM	> 5 µM	> 25 µM	–	–	–
COc1cccc(CN(C(=O)c2cc(-c3cc(Cl)ccc3C(=O)N3Cc4ccccc4C[C@H]3CN3CCOCC3)n3c2CCCC3)c2ccc(O)cc2)c1C [Compound 4, 3-[5-chloro-2-[(3S)-3-(morpholinomethyl)-3,4-dihydro-1H-isoquinoline-2-carbonyl]phenyl]-N-(4-hydroxyphenyl)-N-[(3-methoxy-2-methyl-phenyl)methyl]-5,6,7,8-tetrahydroindolizine-1-carboxamide]	≤ 5 µM	≤ 0.005 µM	≤ 0.1 µM	≤ 0.2 µM	–	0.1 to 1 µM	> 5 µM	10 to 25 µM	–	–	–
COc1cccc(CN(C(=O)c2cc(-c3cc(F)c(F)cc3C(=O)N3Cc4ccccc4C[C@H]3CN3CCOCC3)n(C)c2C)c2ccc(O)cc2)c1C [Compound 51, 5-[4,5-difluoro-2-[(3S)-3-(morpholinomethyl)-3,4-dihydro-1H-isoquinoline-2-carbonyl]phenyl]-N-(4-hydroxyphenyl)-N-[(3-methoxy-2-methyl-phenyl)methyl]-1,2-dimethyl-pyrrole-3-carboxamide]	≤ 5 µM	0.01 to 0.05 µM	0.1 to 0.2 µM	0.2 to 0.5 µM	–	0.1 to 1 µM	2 to 5 µM	> 25 µM	–	–	–
COc1cccc(CN(C(=O)c2cc(-c3cc(Cl)c(C#N)cc3C(=O)N3Cc4ccccc4C[C@H]3CN3CCOCC3)n(C)c2C)c2ccc(O)cc2)c1C [Compound 9, 5-[5-chloro-4-cyano-2-[(3S)-3-(morpholinomethyl)-3,4-dihydro-1H-isoquinoline-2-carbonyl]phenyl]-N-(4-hydroxyphenyl)-N-[(3-methoxy-2-methyl-phenyl)methyl]-1,2-dimethyl-pyrrole-3-carboxamide]	≤ 5 µM	≤ 0.005 µM	> 0.2 µM	> 0.5 µM	–	0.1 to 1 µM	2 to 5 µM	10 to 25 µM	–	–	–
COc1cc(C(=O)N2Cc3ccccc3C[C@H]2CN2CCOCC2)c(-c2cc(C(=O)N(Cc3cccc(OC)c3C)c3ccc(O)cc3)c(C)n2C)cc1F [Compound 21, 5-[5-fluoro-4-methoxy-2-[(3S)-3-(morpholinomethyl)-3,4-dihydro-1H-isoquinoline-2-carbonyl]phenyl]-N-(4-hydroxyphenyl)-N-[(3-methoxy-2-methyl-phenyl)methyl]-1,2-dimethyl-pyrrole-3-carboxamide]	≤ 5 µM	0.01 to 0.05 µM	0.1 to 0.2 µM	≤ 0.2 µM	–	0.1 to 1 µM	2 to 5 µM	> 25 µM	–	–	–
COc1cccc(CN(C(=O)c2cc(-c3cc([N+](=O)[O-])ccc3C(=O)N3Cc4ccccc4C[C@H]3CN3CCOCC3)n(C)c2C)c2ccc3[nH]ncc3c2)c1C [Compound 65, N-(1H-indazol-5-yl)-N-[(3-methoxy-2-methyl-phenyl)methyl]-1,2-dimethyl-5-[2-[(3S)-3-(morpholinomethyl)-3,4-dihydro-1H-isoquinoline-2-carbonyl]-5-nitro-phenyl]pyrrole-3-carboxamide]	≤ 5 µM	0.01 to 0.05 µM	> 0.2 µM	> 0.5 µM	–	> 1 µM	> 5 µM	10 to 25 µM	–	–	–
COc1cccc(CN(C(=O)c2cc(-c3cc(Cl)c(OC(F)F)cc3C(=O)N3Cc4ccccc4C[C@H]3CN3CCOCC3)n(C)c2C)c2ccc(O)cc2)c1C [Compound 36, 5-[5-chloro-4-(difluoromethoxy)-2-[(3S)-3-(morpholinomethyl)-3,4-dihydro-1H-isoquinoline-2-carbonyl]phenyl]-N-(4-hydroxyphenyl)-N-[(3-methoxy-2-methyl-phenyl)methyl]-1,2-dimethyl-pyrrole-3-carboxamide]	5 to 10 µM	0.005 to 0.01 µM	> 0.2 µM	> 0.5 µM	–	0.1 to 1 µM	2 to 5 µM	> 25 µM	–	–	–
COc1cccc(CN(C(=O)c2cc(-c3cc(Cl)c(F)cc3C(=O)N3Cc4ccccc4C[C@H]3CN3CCOCC3)n(C)c2C)c2ccc(C#N)cc2)c1C [Compound 73, 5-[5-chloro-4-fluoro-2-[(3S)-3-(morpholinomethyl)-3,4-dihydro-1H-isoquinoline-2-carbonyl]phenyl]-N-(4-cyanophenyl)-N-[(3-methoxy-2-methyl-phenyl)methyl]-1,2-dimethyl-pyrrole-3-carboxamide]	–	> 0.05 µM	–	–	10 to 25 µM	–	2 to 5 µM	–	> 10 µM	> 0.2 µM	> 0.5 µM
COc1cccc(CN(C(=O)c2cc(-c3cc(Cl)ccc3C(=O)N3Cc4ccccc4C[C@H]3CN3CCOCC3)n(C)c2C)c2ccc3[nH]ncc3c2)c1C [Compound 70, 5-[5-chloro-2-[(3S)-3-(morpholinomethyl)-3,4-dihydro-1H-isoquinoline-2-carbonyl]phenyl]-N-(1H-indazol-5-yl)-N-[(3-methoxy-2-methyl-phenyl)methyl]-1,2-dimethyl-pyrrole-3-carboxamide]	≤ 5 µM	0.005 to 0.01 µM	> 0.2 µM	> 0.5 µM	–	> 1 µM	> 5 µM	> 25 µM	–	–	–
